The source of these data is patent US20090011418A1, “FUNCTIONAL TOLL-LIKE RECEPTORS (TLR) ON MELANOCYTES AND MELANOMA CELLS AND USES THEREOF” (JOHN WAYNE CANCER INSTITUTE, priority 2007, published 2009).

Test [1] addresses T1, TLR4 on the cell surface of melanoma lines (Homo sapiens, UniProt O00206+Q9Y6Y9).
T1 construct: endogenous in cells; host or cells: human melanoma cell lines (fixed with paraformaldehyde); PBLs as comparison
The test is described as follows: FITC-LPS fluorescence microscopy binding. As to conditions: 20 μg/ml FITC-LPS, 20 min, fixed cells. As for the experimental part: (§1) Cells were fixed with 4% paraformaldehyde in PBS for 10 min, and then incubated inside a 37° C. humidified atmosphere containing 5% CO2 for 20 min in RPMI 1640 medium supplemented with 10% FBS and 20 μg/ml of fluorescein isothiocyanate (FITC)-LPS (Sigma, St Louis, Mo.). After washing, cells were visualized using an Olympus IX70 fluorescence microscope. The images were recorded using an Olympus C-3030 Zoom Camedia Digital Camera.
The inventors employed FITC-LPS to assess binding to TLR4 on the cell surface of melanoma lines. PIC-FITC and zymosan-FITC were not available for assessment. […] The FITC-LPS analysis confirmed TLR4 receptor staining on the melanoma cell surface.

In test [2] the test system is PBLs. The test is described as follows: FITC-LPS fluorescence microscopy staining. The test is classed as binding, human. The settings on record: 20 μg/ml FITC-LPS, 20 min, fixed cells. How it is done: as §1, with “Camera. […] The inventors employed FITC-LPS to assess binding to TLR4 on the cell surface of melanoma lines. PIC-FITC and zymosan-FITC were not available for assessment. […] The FITC-LPS analysis confirmed TLR4 receptor staining on the melanoma cell surface.” for “Camera.”

T1 sequence (O00206 24-839): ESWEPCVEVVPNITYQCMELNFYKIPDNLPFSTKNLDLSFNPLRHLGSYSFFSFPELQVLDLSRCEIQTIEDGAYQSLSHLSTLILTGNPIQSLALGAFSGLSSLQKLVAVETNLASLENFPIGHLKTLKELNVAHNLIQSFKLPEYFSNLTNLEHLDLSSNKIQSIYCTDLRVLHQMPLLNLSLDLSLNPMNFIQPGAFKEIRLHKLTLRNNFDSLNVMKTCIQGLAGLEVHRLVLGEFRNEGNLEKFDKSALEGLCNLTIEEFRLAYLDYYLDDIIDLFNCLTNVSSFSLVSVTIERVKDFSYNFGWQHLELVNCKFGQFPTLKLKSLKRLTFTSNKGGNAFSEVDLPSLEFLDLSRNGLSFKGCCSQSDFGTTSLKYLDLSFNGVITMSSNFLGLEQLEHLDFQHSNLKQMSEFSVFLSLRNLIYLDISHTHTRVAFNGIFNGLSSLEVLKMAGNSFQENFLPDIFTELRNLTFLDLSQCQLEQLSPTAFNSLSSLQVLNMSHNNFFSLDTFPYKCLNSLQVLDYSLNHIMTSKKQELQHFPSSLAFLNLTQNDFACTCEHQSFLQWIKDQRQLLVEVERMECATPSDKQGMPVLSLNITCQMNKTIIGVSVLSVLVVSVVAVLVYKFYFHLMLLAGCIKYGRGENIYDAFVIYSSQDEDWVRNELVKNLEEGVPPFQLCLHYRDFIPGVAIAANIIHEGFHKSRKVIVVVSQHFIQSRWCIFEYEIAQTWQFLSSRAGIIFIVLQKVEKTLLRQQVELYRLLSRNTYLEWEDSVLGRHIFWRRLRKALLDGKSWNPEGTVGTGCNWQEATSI
T1 sequence (Q9Y6Y9 17-160 limits assumed): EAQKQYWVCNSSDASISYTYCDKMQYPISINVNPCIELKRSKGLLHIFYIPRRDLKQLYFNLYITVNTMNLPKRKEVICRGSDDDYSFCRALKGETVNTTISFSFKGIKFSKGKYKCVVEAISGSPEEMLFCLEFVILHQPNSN

For the substance “fluorescein isothiocyanate (FITC)-LPS [FITC-LPS]”, in test [1], the “binding to melanoma cell surface (staining)” value is listed as “direct binding of LPS to melanoma cells”. The “staining intensity of PBLs compared with melanoma cells” value in test [2] is recorded as “stained with more intensity”.
